{
  "source": "patent US20240122930A1",
  "about": "“INTEGRIN INHIBITORS AND USES THEREOF IN COMBINATION WITH OTHER AGENTS” (Pliant Therapeutics, Inc., priority 2022, published 2024)",
  "key": {"lung Col1a1 expression": {"system": "lung Col1a1 expression", "assay": "Precision cut lung slices, chronic bleomycin exposure, versus and with nintedanib and pirfenidone", "type": "cell-based, mice (C57BL/6)", "details": "chronic bleomycin PCLS; for lung slice Col1a1 expression vs DMSO vehicle control slices: 7 days", "description": "Mice (C57BL/6) were administered 3 U/kg of bleomycin (Teva Pharmaceuticals; North Wales, PA) on Day 0 and 1 U/kg of bleomycin on days 14, 28, 42 and 56 via oropharyngeal aspiration while under anesthesia. At day 70, 14 days following the final bleomycin insult, precision cut lung slices were obtained. […] The lobes were then subjected to precision slicing to obtain samples for culture using a microtome (Compresstome VF-300-OZ, Precisionary; Greenville, NC). Individual slices were distributed in a multiwell culture plate and cultured for 7 days under control (DMSO) and test compound conditions. The viability of the slices over the course of culturing was confirmed by WST-1 assay of mitochondrial activity. During the culture period, slices in the control group were treated with DMSO and slices in the test group were treated with a DMSO solution of one of: […]"}, "[1]": {"system": "PRO-C3, Type III collagen synthesis neoepitope", "assay": "Phase 2a clinical trial: serum biomarker PRO-C3", "type": "in vivo, human", "details": "IPF participants, 40 to 320 mg, 4 to 24 weeks", "description": "Blank columns represent 40 mg Compound 5 dosage. Grid pattern filled columns represent 80 mg Compound 5 dosage. Diagonal line filled columns represent 160 mg Compound 5 dosage. Dot filled columns represent all participants dosed with Compound 5. […] In FIG. 21, LS refers to Least Squares and SEM refers to Standard Error of Mean.\nPRO-C3 and PRO-C6, serum biomarkers of type III and VI collagen synthesis, respectively, were previously shown to be elevated in patients with IPF and associated with progressive disease, according to Respir Res. 2019 Jul. 12; 20(1):148. Doi: 10.1186/s12931-019-1118-7, which is herein incorporated by reference in its entirety. Change from baseline was analyzed using a mixed model for repeated measures with terms for treatment group, visit, baseline value, and treatment-by-visit interaction. LS refers to Least Squares; SE refers to Standard Error.\n(§1) Med. 2022 June; 10(6):593-602, which is incorporated herein by reference in its entirety. […] Res. 2019 Jul. 12; 20(1):148, which is incorporated herein by reference in its entirety. ** denotes that p<0.01 vs placebo. LS refers to Least Squares. SE refers to Standard Error. Integrin beta-6 data was reported in relative quantitation log2 scale."}, "[2]": {"system": "participants with idiopathic pulmonary fibrosis (IPF)", "assay": "Phase 2a clinical trial: patient-reported cough severity visual analog scale (VAS)", "type": "in vivo, human", "details": "320 mg, weeks 12 and 24, ITT; worsening on placebo", "description": "Of interest, patients receiving Compound 5 experienced a positive impact on cough severity, while cough severity in patients receiving placebo worsened over time. […] The data histograms from left to right are 320 mg Compound 5 treatment at week 12, 320 mg Compound 5 treatment at week 24, placebo treatment at week 12, and placebo treatment at week 24. […] Cough VAS measured patient reported cough severity over last 2 weeks on scale of 0-100 mm."}, "integrin beta-6 (ITGB6)": {"system": "integrin beta-6 (ITGB6)", "assay": "Phase 2a clinical trial: plasma integrin beta-6", "type": "in vivo, human", "details": "IPF participants; greatest effect at 320 mg", "excerpt": "as §1"}, "[3]": {"assay": "αVβ6 target engagement by [18F]FP-R01-MG-F2 PET/CT in participants with IPF", "type": "in vivo, human", "parameters": "Vt / Vs (Vt − VND): unit not given here", "details": "human, plasma; Subject C, 320 mg; read-out: Conc (Unbound Plasma Concentration)", "description": "(§2) The aim of this Example is to assess target engagement of the disclosed compounds to αVβ6 in human participants with IPF using [^18F]FP-R01-MG-F2 PET/computerized tomography (CT) imaging.\n(§3) This Example was conducted as an open-label, single-dose (60 mg, 120 mg, 240 mg or 320 mg) clinical trial evaluating αVβ6 receptor occupancy in the lungs, safety, and pharmacokinetics of Compound #5 in subjects with IPF. To date, 4 participants have completed the study. Each of these 4 participants was undergoing a pre-existing course of therapy using one of the SoC (Standard of Care) compounds, nintedanib. These participants continued their pre-existing nintedanib therapy throughout this study. Knottin tracer uptake kinetics were compared pre- and post-dose of the disclosed compound, as measured by standardized uptake values (SUVs) and parameters estimated from kinetic modeling in regions-of-interest on dynamic [^18F]FP-R01-MG-F2 PET/CT scans. […] Receptor occupancy was estimated from the output of the two-compartment model (VT, the […]) using standard equations and fitting algorithms, and corrections for VND (non-displaceable tracer binding). For example, in FIG. 10, the data points, shown as circles, are modeled by the following formula: […]\n(§4) Five subjects with IPF were enrolled: Subject A received a single dose of 60 mg of the disclosed compound followed by a post-dose scan. Subject B received two doses of the disclosed compound separated by two weeks, 120 mg and 240 mg, each followed by a post-dose scan. Subject C received two doses of the disclosed compound separated by two weeks, 240 mg and 320 mg, each followed by a post-dose scan. Subject D received a single dose of 320 mg of the disclosed compound followed by a post-dose scan."}, "αVβ6": {"molecular_target": "T1, αVβ6 (Homo sapiens, UniProt P06756+P18564)", "T1 construct": "clinical trial evaluating αVβ6 receptor occupancy in the lungs; from tissue; host or cells: lungs of human participants with IPF (in vivo PET/CT)", "T1 sequence (P06756 31-1048)": "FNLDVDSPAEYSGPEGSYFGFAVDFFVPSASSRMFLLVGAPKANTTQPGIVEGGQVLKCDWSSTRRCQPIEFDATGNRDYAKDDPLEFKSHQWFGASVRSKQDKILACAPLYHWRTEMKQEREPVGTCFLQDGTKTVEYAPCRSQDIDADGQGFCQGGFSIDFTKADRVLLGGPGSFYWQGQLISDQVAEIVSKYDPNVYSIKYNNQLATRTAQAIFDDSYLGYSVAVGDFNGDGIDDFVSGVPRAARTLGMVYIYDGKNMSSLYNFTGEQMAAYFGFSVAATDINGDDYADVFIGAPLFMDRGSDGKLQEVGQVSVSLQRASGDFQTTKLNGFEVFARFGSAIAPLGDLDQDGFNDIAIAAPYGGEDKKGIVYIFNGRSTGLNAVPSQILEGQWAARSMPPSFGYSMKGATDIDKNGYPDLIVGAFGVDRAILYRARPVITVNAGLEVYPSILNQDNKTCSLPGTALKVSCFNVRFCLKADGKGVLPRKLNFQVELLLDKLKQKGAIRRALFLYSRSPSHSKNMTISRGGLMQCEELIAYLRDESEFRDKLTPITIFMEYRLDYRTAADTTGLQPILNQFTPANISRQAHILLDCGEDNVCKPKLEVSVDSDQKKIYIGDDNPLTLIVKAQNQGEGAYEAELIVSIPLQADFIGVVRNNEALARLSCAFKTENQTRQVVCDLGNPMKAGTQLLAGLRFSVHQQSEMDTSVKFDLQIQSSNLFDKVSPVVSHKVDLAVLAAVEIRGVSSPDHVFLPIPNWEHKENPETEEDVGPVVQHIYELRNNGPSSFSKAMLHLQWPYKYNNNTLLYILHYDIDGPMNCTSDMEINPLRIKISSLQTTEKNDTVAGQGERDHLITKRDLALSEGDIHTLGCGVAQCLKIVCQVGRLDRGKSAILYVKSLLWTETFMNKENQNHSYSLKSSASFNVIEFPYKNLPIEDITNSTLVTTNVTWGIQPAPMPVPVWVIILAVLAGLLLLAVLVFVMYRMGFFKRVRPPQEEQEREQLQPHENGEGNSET", "T1 sequence (P18564 22-788)": "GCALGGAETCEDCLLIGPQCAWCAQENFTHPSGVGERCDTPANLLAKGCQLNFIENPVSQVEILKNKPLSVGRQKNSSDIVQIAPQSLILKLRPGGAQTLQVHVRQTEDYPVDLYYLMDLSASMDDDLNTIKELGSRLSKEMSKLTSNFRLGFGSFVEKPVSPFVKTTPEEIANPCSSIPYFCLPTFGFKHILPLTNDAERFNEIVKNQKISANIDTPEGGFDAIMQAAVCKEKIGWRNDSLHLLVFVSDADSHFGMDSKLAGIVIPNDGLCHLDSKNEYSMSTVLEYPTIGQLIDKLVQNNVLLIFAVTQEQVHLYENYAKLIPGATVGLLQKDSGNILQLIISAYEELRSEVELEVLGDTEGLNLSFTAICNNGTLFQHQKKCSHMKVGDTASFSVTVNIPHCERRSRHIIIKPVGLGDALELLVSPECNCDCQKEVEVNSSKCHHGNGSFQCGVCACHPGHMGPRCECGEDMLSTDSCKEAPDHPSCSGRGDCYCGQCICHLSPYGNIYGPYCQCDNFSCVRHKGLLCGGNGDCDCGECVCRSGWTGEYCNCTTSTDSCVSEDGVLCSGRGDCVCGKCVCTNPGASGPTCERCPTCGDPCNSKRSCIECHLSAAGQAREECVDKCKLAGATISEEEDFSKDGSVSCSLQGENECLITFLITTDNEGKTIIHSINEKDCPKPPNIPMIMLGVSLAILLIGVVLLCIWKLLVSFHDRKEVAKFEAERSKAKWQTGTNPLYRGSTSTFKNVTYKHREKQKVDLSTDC", "assay": "αVβ6 target engagement by [18F]FP-R01-MG-F2 PET/CT in participants with IPF", "type": "in vivo", "parameters": "Vt / Vs (Vt − VND): unit not given here", "details": "for Vs (Vt − VND): VND = 0.66", "description": "as §2, §3, §4"}, "[4]": {"details": "% target engagement fit of FIG. 10"}},
  "note": "“Also recorded” adds a separate entry of the source.",
  "data": [
    {"molecule": "COCCN(CCCCc1ccc2c(n1)NCCC2)CC[C@H](Nc1ncnc2ccccc12)C(=O)O", "note": "[Compound 5, (S)-4-((2-methoxyethyl) (4-(5,6,7,8-tetrahydro-1,8-naphthyridin-2-yl)butyl)amino)-2-(quinazolin-4-ylamino) butanoic acid]", "values": [
      {"measurement": "lung Col1a1 expression vs DMSO vehicle control slices", "setting": "lung Col1a1 expression; 7 days culture, single agents", "result": "substantial, statistically significant (p<0.01 vs vehicle) decrease"},
      {"measurement": "lung slice Col1a1 expression vs DMSO vehicle control slices", "setting": "lung Col1a1 expression; in combination with nintedanib", "result": "substantial, statistically significant (p<0.01 vs vehicle) decrease"},
      {"measurement": "lung slice Col1a1 expression vs DMSO vehicle control slices", "setting": "lung Col1a1 expression; in combination with pirfenidone", "result": "substantial, statistically significant (p<0.01 vs vehicle) decrease"},
      {"measurement": "Serum PRO-C3, change from baseline relative to placebo", "setting": "[1]", "result": "decreased; also recorded: reduced; also recorded: dose-dependent reduction"},
      {"measurement": "Patient-reported cough severity (VAS), change from baseline", "setting": "[2]", "result": "reduced"},
      {"measurement": "Circulating (plasma) integrin beta-6 levels relative to placebo", "setting": "integrin beta-6 (ITGB6)", "result": "reduced"},
      {"measurement": "concentration at 4 h", "setting": "[3]", "result": 98.5, "unit": "nM"},
      {"measurement": "decrease of the volume of distribution of the knottin radiotracer in the lungs", "setting": "αVβ6; 60 mg dose", "result": "approximately 50%"},
      {"measurement": "decrease of the volume of distribution of the knottin radiotracer in the lungs", "setting": "αVβ6; 240 and 320 mg doses", "result": "greater than 95%"},
      {"measurement": "best-fit bottom value", "setting": "αVβ6; [4]", "result": 0},
      {"measurement": "best-fit hillslope value", "setting": "αVβ6; [4]", "result": 1.11},
      {"measurement": "best-fit top value", "setting": "αVβ6; [4]", "result": 87.4},
      {"measurement": "Conc (Unbound Plasma Concentration)", "setting": "αVβ6; Subject A, 60 mg", "result": 3.66, "unit": "nM"},
      {"measurement": "Vt", "setting": "αVβ6; Subject A, post-dose 60 mg", "result": 1.84},
      {"measurement": "Vs (Vt − VND)", "setting": "αVβ6; Subject A, post-dose 60 mg", "result": 1.18},
      {"measurement": "Conc (Unbound Plasma Concentration)", "setting": "αVβ6; Subject B, 120 mg", "result": 10, "unit": "nM"},
      {"measurement": "%DeltaVt", "setting": "αVβ6; Subject B, 120 mg, corrected for non-displaceable binding", "result": 59.76, "unit": "%"},
      {"measurement": "Conc (Unbound Plasma Concentration)", "setting": "αVβ6; Subject B, 240 mg", "result": 58.3, "unit": "nM"},
      {"measurement": "Vt", "setting": "αVβ6; Subject B, post-dose 120 mg", "result": 1.65},
      {"measurement": "Vs (Vt − VND)", "setting": "αVβ6; Subject B, post-dose 120 mg", "result": 0.99},
      {"measurement": "Vt", "setting": "αVβ6; Subject B, post-dose 240 mg", "result": 0.72},
      {"measurement": "Vs (Vt − VND)", "setting": "αVβ6; Subject B, post-dose 240 mg", "result": 0.06},
      {"measurement": "Conc (Unbound Plasma Concentration)", "setting": "αVβ6; Subject C, 240 mg", "result": 103, "unit": "nM"},
      {"measurement": "Vt", "setting": "αVβ6; Subject C, post-dose 240 mg", "result": 0.98},
      {"measurement": "Vs (Vt − VND)", "setting": "αVβ6; Subject C, post-dose 240 mg", "result": 0.32},
      {"measurement": "Vt", "setting": "αVβ6; Subject C, post-dose 320 mg", "result": 0.85},
      {"measurement": "Vs (Vt − VND)", "setting": "αVβ6; Subject C, post-dose 320 mg", "result": 0.19},
      {"measurement": "Conc (Unbound Plasma Concentration)", "setting": "αVβ6; Subject D, 320 mg", "result": 33.6, "unit": "nM"},
      {"measurement": "Vt", "setting": "αVβ6; Subject D, post-dose 320 mg", "result": 0.75},
      {"measurement": "Vs (Vt − VND)", "setting": "αVβ6; Subject D, post-dose 320 mg", "result": 0.09},
      {"measurement": "Receptor occupancy", "setting": "αVβ6; at pharmacologically relevant plasma concentrations", "result": "> 95", "unit": "%"},
      {"measurement": "concentration at which the exposure response saturates", "setting": "αVβ6; drug exposure at 4 hours, approaching 100% receptor occupancy", "result": "about 100 nM"},
      {"measurement": "EC50", "setting": "αVβ6; unbound plasma concentration vs % target engagement, 4-parameter non-linear regression (FIG. 10), read-out: best-fit EC50", "result": 2.96, "unit": "nM"}
    ]}
  ]
}
